Laboratory results published in publication PMC5620575 (Pharmaceutics, 2017).
≈ marks a conversion by molar mass, not a printed value. Like-named read-outs stand apart in the source and are kept apart here.

Legend:
[1] = design: method as in unpublished data from our laboratory; conditions: rabbit urine after IV administration; ref unpublished data from our laboratory; cited from earlier work
[2] = blood to plasma partition; assay type: in vitro ADME; conditions: heparinized whole blood, rabbit blood, 37 °C, n = 3
Procedure: The spiked blood samples were kept at 37 °C in a shaking water bath for one hour, and plasma was then obtained by centrifugation at 37 °C. Aliquots of about 400 μL, of each plasma sample were kept frozen at −80 °C until analysis. The blood to plasma distribution ratio was determined from the ratio of the nominal total whole blood concentration and the measured plasma concentration for each compound.

[3] = biopharmaceutical classification system (BCS) class; conditions: assigned from lower aqueous solubility than Lzd and calculated Log P less than 1.7
[4] = pharmacokinetics after single oral administration as microemulsion; assay type: in vivo; conditions: plasma, rabbit, 20 mg/kg, n = 3; for AUC / Cmax / Tmax: New Zealand White; for bioavailability: White New Zealand
Procedure: Three groups of rabbits (n = 3, each) received 20 mg/kg oral dose of each compound in the form of microemulsion through a pediatric feeding tube. After administration, serial blood samples were obtained through the IV catheter, over a period of 10 h. Plasma was obtained from blood by centrifugation, and samples were kept at −80 °C until analysis.
(§1) The pharmacokinetic parameters for each of the three compounds including half-life (t1/2), volume of distribution (Vd), elimination rate constant (k), area under the plasma concentration-time curve (AUC), total body clearance (CLT), renal clearance (CLR), and oral bioavailability (F) were determined using the general pharmacokinetic parameter calculation procedures using PKPD tools for Microsoft Excel. The obtained pharmacokinetic parameters for each compound were compared using Statistical Package of Social Sciences (SPSS) to determine the difference in the pharmacokinetic behavior for the three compounds.

[5] = pharmacokinetics after single IV administration; assay type: in vivo; conditions: rabbit, 5 mg/kg; for AUC / half-life / k el: plasma; for AUC / half-life / CLT: n = 4; for k el: n = 4, read-out: Elimination rate constant (converted)
Excerpt: IV administration of the compounds under investigation, and collection of blood samples were through a catheter inserted in the marginal ear vein of the rabbit (I-Cath, CharterMed Inc., Winston-Salem, NC, USA). After IV drug administration, blood was withdrawn to fill the cannula and then reinjected three times before obtaining any blood samples to prevent contamination. Furthermore, the cannula was flushed with heparinized saline to prevent blockage of the cannula and prevent sample to sample contamination.
Urine samples were collected utilizing Foly Catheter (size French 8). The catheter was inserted into the rabbit bladder using a lubricant. When urine is collected over a specific time interval, the bladder was irrigated with 3 × 15 mL normal saline at 3 min, 6 min, and 10 min before the end of the urine collection interval [15, 16]. Irrigation of the bladder is necessary to obtain the majority of the drug eliminated in urine during the collection interval.
Three groups of rabbits (n = 4, each) received 5 mg/kg dose of each compound via the IV catheter. This dose was selected based on the results of a preliminary experiment to achieve measurable plasma concentrations for 8 h using our analytical methods, to ensure good characterization of the plasma concentration-time profile. Accurately weighed Lzd and PH027 powder were dissolved first in 600 μL of ethanol using an ultrasound water bath. The resulting solution was then diluted with normal saline to produce the solutions used for IV administration, which consist of the dose of the compound dissolved in 3 mL of 20% ethanol in normal saline. PH051 required the use of slightly larger volume of ethanol to achieve complete dissolution. So, 900 μL of ethanol were used, and the resulting solution used for IV administration consisted of PH051 dose dissolved in 3 mL of 30% ethanol in normal saline. The difference in the volume of ethanol administered, 300 μL, which was necessary to ensure complete dissolution of PH051, should not have a significant effect on the pharmacokinetic behavior of PH051. The solutions were administered slowly over a period of […] administration, serial blood and urine samples were obtained over a period of 8 h. Plasma was obtained from blood by centrifugation, and samples were kept at −80 °C until analysis. The volumes of urine samples were determined and recorded, and aliquots were kept at −80 °C until analysis.
as §1

Streptococcus pneumoniae = system: Streptococcus pneumoniae; design: method as in PMID 12467705, PMID 15911326, PMID 17140706, PMID 19376613, PMID 23811087; conditions: cited from earlier work
[6] = system: Staphylococcus aureus and Enterococci spp; design: method as in PMID 12467705, PMID 15911326, PMID 17140706, PMID 19376613, PMID 23811087; conditions: clinical isolates; cited from earlier work
[7] = tissue to plasma distribution; assay type: in vivo; conditions: New Zealand White, rabbit, 2 x 10 mg/kg IV, 2 h after second dose, n = 3
Procedure: Three groups of White New Zealand rabbits (n = 3, each) weighing 3.0–3.5 kg were used. Each group received 10 mg/kg of one compounds administered intravenously over a period of 3–5 min, followed one hour later by a second IV dose of 10 mg/kg. Two h later, the rabbits were euthanized with an IV dose of pentobarbital. Plasma and tissue samples, including kidney, liver, lungs, spleen, heart, muscles, and vetrus fluid were collected immediately, and stored at −80 °C until analysis.
Plasma ultra-filtrate samples were analyzed using the same procedures for the plasma. Tissue homogenates were prepared by adding 1 gm of the tissues samples to 4 g of phosphate buffer, pH 7.4 (1:4, w/w), then homogenization using Tissue-Tearor, Bio-Spec Products Inc. (Bartlesville, OK, USA). Aliquots of 200 μL of tissue homogenate samples were analyzed using the procedures for the plasma and the concentrations were determined using plasma calibrators as described and validated previously for Lzd and PH027 [18].
The tissue to plasma concentration ratios for the three compounds were calculated from the ratio of the tissue homogenate concentrations corrected for the dilution during the homoginization process and the plasma concentrations. Generally, the three compounds have very good distribution to all tissues. The tissue to plasma distribution ratios for the novel compounds were more than one in kidney, lung, liver, heart, muscles and spleen, and the ratios were more than those for Lzd in all investigated tissues. Table 3, summerizes the tissue to plasma distribution ratios for the three compounds in different tissues.

Escherichia coli = system: Escherichia coli; design: method as in PMID 12467705, PMID 15911326, PMID 17140706, PMID 19376613, PMID 23811087; conditions: cited from earlier work
[8] = brain, read-out: Tissue to Plasma Concentration Ratio, Brain
[9] = eye (vitreous fluid), read-out: Tissue to Plasma Concentration Ratio, Eye (vetrus fluid)
[10] = heart, read-out: Tissue to Plasma Concentration Ratio, Heart
[11] = kidney, read-out: Tissue to Plasma Concentration Ratio, Kidney
[12] = liver, read-out: Tissue to Plasma Concentration Ratio, Liver
[13] = lung, read-out: Tissue to Plasma Concentration Ratio, Lung
[14] = muscle, read-out: Tissue to Plasma Concentration Ratio, Muscles
[15] = spleen, read-out: Tissue to Plasma Concentration Ratio, Spleen

blood plasma ratio at 1 h, 250 μg/L [2]	blood plasma ratio at 1 h, 1000 μg/L [2]	BCS class [3]	AUC [4] [ng·h/mL]	Cmax [4] [ng/mL]	Tmax [4] [h]	bioavailability [4] [%]	AUC ([5]; White New Zealand) [ng·h/mL]	half-life ([5]; White New Zealand) [h]	k el ([5]; White New Zealand) [s⁻¹]	CLT [5] [mL/min/kg]	Kp at 2 h [7, 8]	Kp at 2 h [7, 9]	Kp at 2 h [7, 10]	Kp at 2 h [7, 11]	Kp at 2 h [7, 12]	Kp at 2 h [7, 13]	SMILES	main metabolic route [1]	MIC (Streptococcus pneumoniae) [µg/mL]	MIC [6] [µg/mL]	also measured
0.96 ± 0.032	1.01 ± 0.021	Class IV	16600	2870 ± 392	2	72.9	5670 ± 933	1.15 ± 0.202	0.000168	14.7 ± 3.83	0.223 ± 0.016	0.989 ± 0.1	1.36 ± 0.087	2.78 ± 0.089	2.91 ± 0.168	1.59 ± 0.041	O=C1O[C@@H](Cn2ccnn2)CN1c1ccc(N2CCOCC2)c(F)c1 [PH027]	metabolized mainly through oxidation	0.5 (≈ 1.44 µM)	0.5 to 1.0	CL renal ([5]; White New Zealand, urine and plasma, from renal excretion rate and plasma drug concentration, read-out: Renal clearance (converted)): 0.0633 mL/min/kg; Kp at 2 h [7, 14]: 1.25 ± 0.059; Kp at 2 h [7, 15]: 1.51 ± 0.026; MIC (Escherichia coli): > 64 µg/mL
0.772 ± 0.022	0.833 ± 0.015	Class IV	1080 ± 426	731 ± 412	0.5	13.9	1950 ± 986	2.92 ± 0.768	6.6e-05	42.73 ± 20.2	0.179 ± 0.07	0.81 ± 0.11	1.56 ± 0.22	2.22 ± 0.063	1.7 ± 0.19	1.5 ± 0.16	O=C1O[C@@H](Cn2ccnn2)CN1c1ccc(N2CCN(C(=O)C(F)(F)F)CC2)c(F)c1 [PH051]	amide hydrolysis	1.0 (≈ 2.26 µM)	0.25 to 0.5	Fraction excreted unchanged in urine ([5]; ratio of renal clearance to total body clearance): only trace amounts; Kp at 2 h [7, 14]: 1.58 ± 0.21; Kp at 2 h [7, 15]: 1.41 ± 0.27; MIC (Escherichia coli): > 64 µg/mL
